The compounds below were run on SREBP pathway (assay: SREBP luciferase reporter gene system (SRE-luciferase assay)). Conditions: Homo sapiens, Huh-7, 16 h, Huh-7/SRE-luc cells, sterol-deficient medium, 0.01-10 µM.
Format: cell-based, human
Procedure, shortened: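 Huh-7 cells stably carrying LDLR promoter-luciferase plus GFP were treated 16 h in sterol-deficient medium (5% lipoprotein-deficient serum, 2 µM lovastatin, 10 µM mevalonic acid) at 0.01–10 µM. Luciferase/GFP ratio measured as pathway activity; inhibition versus DMSO fitted to a four-parameter model for IC50.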

First: COc1cccc(F)c1C(CCC[C@@H](C)[C@H]1CC[C@H]2[C@H]3[C@H](CC[C@]12C)[C@@]1(C)CC[C@H](O)[C@H](O)[C@@H]1CC3(F)F)=NO (single isomer, unassigned) [Compound 211, [(1Z,5R)-5-[(1R,3aS,3bS,5aR,6R,7S,9aS,9bS,11aR)-4,4-difluoro-6,7-dihydroxy-9a,9b,11a-trimethylhexadecahydro-1H-cyclopenta[1,2-a]phenanthren-1-yl]-1-(2-fluoro-6-methoxyphenyl)hexylidene]hydroxylamine or [(1E,5R)-5-[(1R,3aS,3bS,5aR,6R,7S,9aR,9bS,11aR)-4,4-difluoro-6,7-dihydroxy-9a,11a-dimethylhexadecahydro-1H-cyclopenta[1,2-a]phenanthren-1-yl]-1-(2-fluoro-6-methoxyphenyl)hexylidene]hydroxylamine]
Second: COc1cc(F)ccc1C(N)CCC[C@@H](C)[C@H]1CC[C@H]2[C@H]3[C@H](CC[C@]12C)[C@@]1(C)CC[C@H](O)[C@H](O)[C@@H]1CC3(F)F (stereo partly drawn) [Compound 156, (1R,3aS,3bS,5aR,6R,7S,9aR,9bS,11aR)-1-[(2R)-6-amino-6-(4-fluoro-2-methoxyphenyl)hexan-2-yl]-4,4-difluoro-9a,11a-dimethylhexadecahydro-1H-cyclopenta[1,2-a]phenanthrene-6,7-diol]
The IC50 of the first is 16-fold lower: 0.08 µM for the first, 1.32 µM for the second. The first is the more potent here.

Going from `COc1cccc(C(O)CCC[C@@H](C)[C@H]2CC[C@H]3C4=C(F)C[C@H]5[C@@H](O)[C@@H](O)CC[C@]5(C)[C@H]4CC[C@]23C)c1` (stereo partly drawn) [Compound 40, (1R,3aR,5aR,6R,7S,9aR,9bR,11aR)-4-fluoro-1-[(2R)-6-hydroxy-6-(3-methoxyphenyl)hexan-2-yl]-9a,11a-dimethyl-2,3,3a,5,5a,6,7,8,9,9a,9b,10,11,11a-tetradecahydro-1H-cyclopenta[1,2-a]phenanthrene-6,7-diol] to `COc1ccc(F)c(C(O)CCC[C@@H](C)[C@H]2CC[C@H]3C4=C(F)C[C@H]5[C@@H](O)[C@@H](O)CC[C@]5(C)[C@H]4CC[C@]23C)c1` (stereo partly drawn) [Compound 174, (1R,3aR,5aR,6R,7S,9aR,9bR,11aR)-4-fluoro-1-[(2R)-6-(2-fluoro-5-methoxyphenyl)-6-hydroxyhexan-2-yl]-9a,11a-dimethyl-2,3,3a,5,5a,6,7,8,9,9a,9b,10,11,11a-tetradecahydro-1H-cyclopenta[1,2-a]phenanthrene-6,7-diol], the IC50 falls from 0.25 µM to 0.148 µM (1.7-fold).

Going from `COc1cccc(C(O)CCC[C@@H](C)[C@H]2CC[C@H]3[C@@H]4CC[C@H]5[C@@H](O)[C@@H](O)CC[C@]5(C)[C@H]4CC[C@]23C)c1` (stereo partly drawn) [Compound 5, 24-[hydroxy(3-methoxyphenyl)methyl]-5α-cholane-3β,4β-diol] to `C[C@H](CCCC(O)c1cccnc1F)[C@H]1CC[C@H]2[C@H]3[C@H](CC[C@]12C)[C@@]1(C)CC[C@H](O)[C@H](O)[C@@H]1CC3(F)F` (stereo partly drawn) [Compound 80, (1R,3aS,3bS,5aR,6R,7S,9aR,9bS,11aR)-4,4-difluoro-1-[(2R)-6-(2-fluoropyridin-3-yl)-6-hydroxyhexan-2-yl]-9a,11a-dimethylhexadecahydro-1H-cyclopenta[1,2-a]phenanthrene-6,7-diol], the IC50 rises from 0.13 µM to 0.514 µM (4-fold). The first is the more potent here.

Going from `COc1cccc(F)c1C(O)CCC[C@@H](C)[C@H]1CC[C@H]2[C@H]3[C@H](CC[C@]12C)[C@@]1(C)CC[C@H](O)C(=O)[C@@H]1CC3(F)F` (stereo partly drawn) [Compound 124, (1R,3aS,3bS,5aR,7S,9aR,9bS,11aR)-4,4-difluoro-1-[(2R)-6-(2-fluoro-6-methoxyphenyl)-6-hydroxyhexan-2-yl]-7-hydroxy-9a,11a-dimethylhexadecahydro-1H-cyclopenta[1,2-a]phenanthren-6-one] to `C[C@H](CCCC(O)c1ccccc1F)[C@H]1CC[C@H]2[C@H]3[C@H](CC[C@]12C)[C@@]1(C)CC[C@H](O)CC1CC3(F)F` (stereo partly drawn) [Compound 74, (1R,3aS,3bR,7S,9aS,9bS,11aR)-4,4-difluoro-1-[(2R)-6-(2-fluorophenyl)-6-hydroxyhexan-2-yl]-9a,11a-dimethylhexadecahydro-1H-cyclopenta[1,2-a]phenanthren-7-ol], the IC50 rises from 0.064 µM to 0.68 µM (11-fold).

`COc1ncncc1C(O)CCC[C@@H](C)[C@H]1CC[C@H]2[C@H]3[C@H](CC[C@]12C)[C@@]1(C)CC[C@H](O)[C@H](O)[C@@H]1CC3(F)F` (stereo partly drawn) [Compound 152, (1R,3aS,3bS,5aR,6R,7S,9aR,9bS,11aR)-4,4-difluoro-1-[(2R)-6-hydroxy-6-(4-methoxypyrimidin-5-yl)hexan-2-yl]-9a,11a-dimethylhexadecahydro-1H-cyclopenta[1,2-a]phenanthrene-6,7-diol] and `C[C@H](CCC[C@H](O)c1n[nH]c2ccccc12)[C@H]1CC[C@H]2[C@H]3[C@H](CC[C@]12C)[C@@]1(C)CC[C@H](O)[C@H](O)[C@@H]1CC3(F)F` [Compound 319, (1R,3aS,3bS,5aR,6R,7S,9aR,9bS,11aR)-4,4-difluoro-1-[(2R,6S)-6-hydroxy-6-(1H-indazol-3-yl)hexan-2-yl]-9a,11a-dimethylhexadecahydro-1H-cyclopenta[1,2-a]phenanthrene-6,7-diol] are within 1.5-fold of each other in IC50: 0.14 µM for the first, 0.104 µM for the second.

Same assay, conditions: Huh-7/SRE-luc cells, sterol-deficient medium, 16 hours, 0.01-10 µM

First: C[C@H](CCCC(O)c1cccc2[nH]ncc12)[C@H]1CC[C@H]2[C@H]3[C@H](CC[C@]12C)[C@@]1(C)CC[C@H](O)[C@H](O)[C@@H]1CC3(F)F (single isomer, unassigned) [Compound 274, (1R,3aS,3bS,5aR,6R,7S,9aR,9bS,11aR)-4,4-difluoro-1-[(2R,6R)-6-hydroxy-6-(1H-indazol-4-yl)hexan-2-yl]-9a,11a-dimethylhexadecahydro-1H-cyclopenta[1,2-a]phenanthrene-6,7-diol or (1R,3aS,3bS,5aR,6R,7S,9aR,9bS,11aR)-4,4-difluoro-1-[(2R,6S)-6-hydroxy-6-(1H-indazol-4-yl)hexan-2-yl]-9a,11a-dimethylhexadecahydro-1H-cyclopenta[1,2-a]phenanthrene-6,7-diol]
Second: C[C@H](CCCC(O)c1cccc2nn[nH]c12)[C@H]1CC[C@H]2[C@H]3[C@H](CC[C@]12C)[C@@]1(C)CC[C@H](O)[C@H](O)[C@@H]1CC3(F)F (single isomer, unassigned) [Compound 295, (1R,3aS,3bS,5aR,6R,7S,9aR,9bS,11aR)-4,4-difluoro-1-[(2R,6R)-6-hydroxy-6-(3H-benzo[d][1,2,3]triazol-4-yl)hexan-2-yl]-9a,11a-dimethylhexadecahydro-1H-cyclopenta[1,2-a]phenanthrene-6,7-diol or (1R,3aS,3bS,5aR,6R,7S,9aR,9bS,11aR)-4,4-difluoro-1-[(2R,6S)-6-hydroxy-6-(3H-benzo[d][1,2,3]triazol-4-yl)hexan-2-yl]-9a,11a-dimethylhexadecahydro-1H-cyclopenta[1,2-a]phenanthrene-6,7-diol]
The IC50 of the first is 2.8-fold higher: 0.758 µM for the first, 0.275 µM for the second.

Compound `C[C@H](CCCC(O)c1cccc2nnn(C)c12)[C@H]1CC[C@H]2[C@H]3[C@H](CC[C@]12C)[C@@]1(C)CC[C@H](O)[C@H](O)[C@@H]1CC3(F)F` (single isomer, unassigned) [Compound 278, (1R,3aS,3bS,5aR,6R,7S,9aR,9bS,11aR)-4,4-difluoro-1-[(2R,6R)-6-hydroxy-6-(3-methylbenzo[d][1,2,3]triazol-4-yl)hexan-2-yl]-9a,11a-dimethylhexadecahydro-1H-cyclopenta[1,2-a]phenanthrene-6,7-diol or (1R,3aS,3bS,5aR,6R,7S,9aR,9bS,11aR)-4,4-Difluoro-1-[(2R,6S)-6-hydroxy-6-(3-methylbenzo[d][1,2,3]triazol-4-yl)hexan-2-yl]-9a,11a-dimethylhexadecahydro-1H-cyclopenta[1,2-a]phenanthrene-6,7-diol] has an IC50 of 0.189 µM.

From patent EP4752152A1, “STEROID COMPOUND, AND PREPARATION METHOD THEREFOR AND USE THEREOF” (Cholesgen (Shanghai) Co.Ltd., priority 2023, dated 2025)
